In US5312816A, “Method of combatting osteoporosis in mammalian subjects, utilizing organic boron compounds” (priority 1993, dated 1994):
Each block holds one molecule with its values, some of them ahead of it.

Columns and labels:
Prostaglandin synthetase = biological target: T1, Prostaglandin synthetase (Bos taurus, UniProt O62664); experiment: Prostaglandin synthetase (cyclooxygenase), purified beef seminal vesicle; assay type: biochemical; conditions: Table IX; commercial enzyme preparation; read-out: Beef Prostaglandin Cyclooxygenase IC50
T1 construct: Prostaglandin synthetase purified beef seminal vesicle; from tissue
T1 sequence (O62664 25-600): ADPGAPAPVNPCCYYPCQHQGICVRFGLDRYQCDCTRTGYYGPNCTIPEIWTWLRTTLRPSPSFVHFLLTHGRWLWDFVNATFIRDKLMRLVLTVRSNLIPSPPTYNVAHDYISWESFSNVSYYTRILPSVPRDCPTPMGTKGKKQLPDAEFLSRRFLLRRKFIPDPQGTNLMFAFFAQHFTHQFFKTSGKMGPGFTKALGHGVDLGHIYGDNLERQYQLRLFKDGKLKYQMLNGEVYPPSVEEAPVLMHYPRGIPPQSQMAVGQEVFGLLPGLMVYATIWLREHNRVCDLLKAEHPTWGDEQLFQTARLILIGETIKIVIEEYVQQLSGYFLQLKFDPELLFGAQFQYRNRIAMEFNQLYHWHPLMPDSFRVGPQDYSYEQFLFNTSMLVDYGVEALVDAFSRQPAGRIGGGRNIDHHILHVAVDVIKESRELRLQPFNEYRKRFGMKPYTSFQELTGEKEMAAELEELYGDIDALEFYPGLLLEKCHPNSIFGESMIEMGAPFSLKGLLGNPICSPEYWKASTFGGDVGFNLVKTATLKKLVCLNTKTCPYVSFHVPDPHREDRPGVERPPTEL
Excerpt: (§1) Prostaglandin synthetase purified beef seminal vesicle ^3 H arachidonic acid (86.2 Ci/mmol), tlc separation.

Hydroxyproline = experiment: Serum and urine hydroxyproline levels in vivo; conditions: Cf1 male mice, 8 mg/kg/day I.P. 14 days, N=6
[1] = biological target: T2, Porcine Pancreatic Elastase (Sus scrofa, UniProt P00772); experiment: Porcine pancreatic elastase activity in vitro; assay type: biochemical; conditions: Table IX; commercial enzyme preparation
T2 construct: purchased; host or cells: porcine pancreas
Excerpt: (§2) 2. Elastase- N-succinyl-L-alanyl-L-alanine-p-nitroanilide, pH 8.0, p-nitro anilide 410 nm.

Cf1 male mice = experiment: Writhing reflex, 0.6% acetic acid; assay type: in vivo; parameters: response vs control in vivo: dose or concentration left out as unconfirmed; conditions: Mus musculus, ip
Calcium = experiment: Serum and urine calcium levels in vivo; conditions: Cf1 male mice, 8 mg/kg/day I.P. 14 days, N=6
Phosphorus = experiment: Serum and urine inorganic phosphorus levels in vivo; conditions: Cf1 male mice, 8 mg/kg/day I.P. 14 days, N=6
Cathepsin D [2] = biological target: T3, Cathepsin D (Mus musculus, UniProt P18242); experiment: Mouse hepatic lysosomal cathepsin D activity; assay type: biochemical; conditions: Table V; mouse hepatic, 60 min incubation; read-out: Cathepsin D IC50
T3 construct: azocasein assay pH 5.0
Excerpt: (§3) 1. Cf1 male mouse hepatic 10% homogenates in 0.25M sucrose+0.001MEDTA,pH 7.2.
Lysosomal Enzymes - free and total [triton X-100].
(§4) 2. Acid Cathepsin D -azocasein-pH 5.0, hydrolytic azo-peptide produce 366 nm.
Cathepsin azo casein activity -

Cathepsin D [3] = biological target: T4, Cathepsin D (Homo sapiens, UniProt P07339); experiment: Human osteoporosis fibroblasts cathepsin D (azo-casein) activity; assay type: cell-based; conditions: Table X; human osteoporosis fibroblasts, DMEM +10% FCS + P/S; read-out: Cathepsin D IC50
T4 construct: azocasein assay pH 5.0
Excerpt: Osteoporosis Human Fibroblast-CRL-1140, Be SA1

Elastase [4] = experiment: Mouse macrophage elastase activity; assay type: cell-based; conditions: read-out: Elastase IC50; Table VIII; mouse macrophages, 60 min incubation
Cathepsin = experiment: Human leukocyte cathepsin; assay type: cell-based; conditions: read-out: Cathepsin IC50; Table XII; human leukocytes, 60 min incubation
Excerpt: 5. Human peripheral leukocytes, RPMI-1788
as §4

Acid phosphatase [5] = experiment: Mouse macrophage acid phosphatase activity; assay type: cell-based; conditions: read-out: Acid Phosphatase IC50; Table VII; mouse macrophage cultured cells, 60 min incubation
[6] = test system: Prostaglandin cyclooxygenase; experiment: Mouse macrophage prostaglandin cyclooxygenase activity; assay type: cell-based; conditions: read-out: Prostaglandin Cyclooxygenase IC50; Table VIII; mouse macrophages, 60 min incubation
Excerpt: 3. Mouse macrophages J774A.1 BALB/c
as §1

Trypsin [7] = experiment: Mouse macrophage trypsin (BAEE) activity; assay type: cell-based; conditions: read-out: Trypsin BAEE IC50; Table VIII; mouse macrophages, 60 min incubation
Trypsin [8] = experiment: Human osteoporosis fibroblasts trypsin (BAEE) activity; assay type: cell-based; conditions: read-out: Trypsin BAEE IC50; Table XI; human osteoporosis fibroblasts, 60 min incubation
Excerpt: 1. Trypsin- N-benzoyl-L-arginine ethyl ester pH 8.0, hydrolytic product 253 nm.

Aryl sulphatase = experiment: Human osteoporosis fibroblasts aryl sulphatase activity; assay type: cell-based; conditions: read-out: Aryl Sulphatase IC50; Table X; human osteoporosis fibroblasts
Excerpt: 3. Aryl sulphatase- p-nitrocatechol sulfate, pH
5. 8 p-nitro-catechol product 510 nm.

[9] = test system: Prostaglandin cyclooxygenase; experiment: Human osteoporosis fibroblasts prostaglandin cyclooxygenase activity; assay type: cell-based; conditions: read-out: Prostaglandin Cyclooxygense IC50, Table XI, 60 min incubation
Acid phosphatase [10] = experiment: Human osteoporosis fibroblasts acid phosphatase activity; assay type: cell-based; conditions: read-out: Acid Phosphatase IC50; Table X; human osteoporosis fibroblasts
Excerpt: 1. Acid phosphatase -beta glycerol-3-phosphate, pH 5.0, released IP 720 nm.

5'-lipoxygenase = biological target: T5, 5'-lipoxygenase (Mus musculus, UniProt P48999); experiment: Mouse hepatic 5'-lipoxygenase activity; assay type: biochemical; conditions: Table VI; mouse hepatic, 60 min incubation; read-out: 5'-lipoxygenase IC50
T5 construct: Cf1 male mouse hepatic 10% homogenates; from tissue; host or cells: CF1 male mouse liver, 10% homogenate
T5 sequence (P48999 1-674): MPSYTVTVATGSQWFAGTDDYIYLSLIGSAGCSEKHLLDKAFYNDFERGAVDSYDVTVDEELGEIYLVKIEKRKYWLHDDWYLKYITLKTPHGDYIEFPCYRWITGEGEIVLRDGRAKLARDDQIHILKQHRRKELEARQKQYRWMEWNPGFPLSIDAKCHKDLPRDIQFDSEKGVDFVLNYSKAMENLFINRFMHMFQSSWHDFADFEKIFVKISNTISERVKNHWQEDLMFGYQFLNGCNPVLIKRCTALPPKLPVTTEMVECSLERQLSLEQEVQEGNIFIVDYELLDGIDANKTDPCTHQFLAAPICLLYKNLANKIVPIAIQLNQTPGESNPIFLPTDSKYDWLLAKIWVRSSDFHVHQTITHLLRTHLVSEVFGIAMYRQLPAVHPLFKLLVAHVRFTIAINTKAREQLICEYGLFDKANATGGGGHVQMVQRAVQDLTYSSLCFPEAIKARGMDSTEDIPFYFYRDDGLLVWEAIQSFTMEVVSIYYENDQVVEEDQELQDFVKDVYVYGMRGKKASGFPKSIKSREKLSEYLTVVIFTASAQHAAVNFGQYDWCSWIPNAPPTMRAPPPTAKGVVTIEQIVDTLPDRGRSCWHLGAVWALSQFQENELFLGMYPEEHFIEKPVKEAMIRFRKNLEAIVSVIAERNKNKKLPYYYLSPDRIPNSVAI
Excerpt: as §3
5'-lipoxygenase Mylari, B.L., et al, J. Med.

Elastase [11] = experiment: Human osteoporosis fibroblasts elastase activity; assay type: cell-based; conditions: read-out: Elastase IC50; Table XI; human osteoporosis fibroblasts, 60 min incubation
Excerpt: as §2

T2 sequence (P00772 27-266): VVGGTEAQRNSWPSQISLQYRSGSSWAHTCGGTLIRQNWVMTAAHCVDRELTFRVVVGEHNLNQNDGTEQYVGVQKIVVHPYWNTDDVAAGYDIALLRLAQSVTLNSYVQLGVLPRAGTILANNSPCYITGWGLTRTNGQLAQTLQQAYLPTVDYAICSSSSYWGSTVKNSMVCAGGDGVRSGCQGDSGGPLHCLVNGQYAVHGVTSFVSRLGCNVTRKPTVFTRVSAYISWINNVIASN
T3 sequence (P18242 65-410): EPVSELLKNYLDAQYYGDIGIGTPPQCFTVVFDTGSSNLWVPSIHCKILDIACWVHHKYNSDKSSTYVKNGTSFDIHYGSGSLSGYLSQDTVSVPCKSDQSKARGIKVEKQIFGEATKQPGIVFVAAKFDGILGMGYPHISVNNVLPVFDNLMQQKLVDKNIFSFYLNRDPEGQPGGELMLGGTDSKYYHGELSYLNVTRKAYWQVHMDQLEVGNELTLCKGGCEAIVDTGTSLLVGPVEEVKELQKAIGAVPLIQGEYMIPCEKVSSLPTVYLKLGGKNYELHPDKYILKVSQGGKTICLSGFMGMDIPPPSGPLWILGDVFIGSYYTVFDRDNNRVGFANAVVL
T4 sequence (P07339 65-412): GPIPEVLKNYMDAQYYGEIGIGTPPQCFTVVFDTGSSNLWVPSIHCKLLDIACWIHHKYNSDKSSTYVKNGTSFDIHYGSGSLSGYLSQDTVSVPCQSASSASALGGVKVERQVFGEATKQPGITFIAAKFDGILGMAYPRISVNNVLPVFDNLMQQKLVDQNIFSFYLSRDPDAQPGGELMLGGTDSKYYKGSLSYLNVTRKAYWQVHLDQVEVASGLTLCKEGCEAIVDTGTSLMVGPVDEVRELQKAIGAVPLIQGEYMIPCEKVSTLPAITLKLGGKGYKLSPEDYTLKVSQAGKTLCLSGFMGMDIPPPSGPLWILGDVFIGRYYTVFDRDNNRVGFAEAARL

IC50 (Prostaglandin synthetase): 1.92 µM | IC50 [1]: 27.6 µM
Compound: CCCCCCCCCCCCCCCCCC[N+](C)(C)[BH2-]C(=O)O [Compound 6, N,N-Dimethyloctadecylamine-carboxyborane]
Hydroxyproline serum (Hydroxyproline): 76.4 % Control | Hydroxyproline urine (Hydroxyproline): 60.6 % Control | response vs control in vivo at 20 mg/kg (Cf1 male mice; Table IV): 14.1% | Calcium serum (Calcium): 135.4 % Control | Calcium urine (Calcium): 64.4 % Control | Phosphorus serum (Phosphorus): 86.2 % Control | Phosphorus urine (Phosphorus): 65.4 % Control

Compound: [BH3-][NH+]1CCOCC1 [Compound 1, Morpholine-borane]
IC50 (Cathepsin D [2]): 0.88 µM | IC50 (Cathepsin D [3]): 4.4 µM | IC50 (Prostaglandin synthetase): 2.36 µM | IC50 (Elastase [4]): 5.94 µM | IC50 (Cathepsin): 72.8 µM | IC50 (Acid phosphatase [5]): 3.18 µM | IC50 [6]: 1.47 µM | IC50 (Trypsin [7]): 2.39 µM | IC50 (Trypsin [8]): 7.88 µM | IC50 [1]: 14.9 µM | IC50 (Aryl sulphatase): 8.99 µM | IC50 [9]: 3.41 µM | response vs control in vivo (Cf1 male mice; read-out: Writhing Reflex Cf1 Mice): 15.2% | IC50 (Acid phosphatase [10]): 10.3 µM | IC50 (5'-lipoxygenase): 66.9 µM | IC50 (Elastase [11]): 1.84 µM
